Measurements taken from article PMC2774819 (Chemistry & biology, 2008).
Like-named read-outs stand apart in the source and are kept apart here. Each block holds one molecule with its values, some of them ahead of it.

How the values were obtained:
[1] = molecular target: MycCI cytochrome P450, C-terminal 6 x His tagged (Micromonospora griseorubida) (UniProt Q83WF5); test: spectral ferredoxin titration
MycG [2] = molecular target: T1, MycG (Micromonospora griseorubida, UniProt Q59523); test: spectral substrate binding assay
T1 sequence (Q59523 1-397): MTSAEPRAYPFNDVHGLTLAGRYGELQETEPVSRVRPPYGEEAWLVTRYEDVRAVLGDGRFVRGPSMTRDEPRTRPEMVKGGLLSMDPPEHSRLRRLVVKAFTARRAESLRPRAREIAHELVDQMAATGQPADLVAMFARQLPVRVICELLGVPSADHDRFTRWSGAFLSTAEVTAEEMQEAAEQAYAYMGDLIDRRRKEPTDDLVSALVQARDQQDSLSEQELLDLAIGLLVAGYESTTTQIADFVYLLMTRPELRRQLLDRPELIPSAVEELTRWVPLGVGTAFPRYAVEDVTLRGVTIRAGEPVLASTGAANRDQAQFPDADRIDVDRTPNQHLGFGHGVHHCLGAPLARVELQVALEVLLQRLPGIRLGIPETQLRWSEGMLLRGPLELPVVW

MycCI = molecular target: T2, MycCI (Micromonospora griseorubida, UniProt Q83WF5); test: spectral substrate binding assay
T2 sequence (Q83WF5 1-388): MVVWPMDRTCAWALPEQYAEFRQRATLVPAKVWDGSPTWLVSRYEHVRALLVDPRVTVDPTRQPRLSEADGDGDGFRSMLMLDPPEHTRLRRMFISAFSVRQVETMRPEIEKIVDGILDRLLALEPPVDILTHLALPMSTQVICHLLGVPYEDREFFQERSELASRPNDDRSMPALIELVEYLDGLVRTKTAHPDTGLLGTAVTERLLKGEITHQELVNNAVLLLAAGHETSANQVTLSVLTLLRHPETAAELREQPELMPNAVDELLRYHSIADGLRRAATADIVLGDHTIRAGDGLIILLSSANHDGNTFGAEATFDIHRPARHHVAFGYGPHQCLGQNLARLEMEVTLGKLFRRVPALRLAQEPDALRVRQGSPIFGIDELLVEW

MycG [3] = molecular target: T1, MycG; test: spectral substrate binding assay; remark: listed apart in the source
[4] = molecular target: T3, MycCI cytochrome P450, C-terminal 6 x His tagged (Micromonospora griseorubida, UniProt Q83WF5 1-388); test: spectral ferredoxin titration
T3 sequence (looked up): T2 sequence (Q83WF5 1-388)

Kd [1]: 149 µM
Molecule: spinach ferredoxin (from UniProt P00221 51-147) (natural protein)

Kd (MycG [2]): 10.4 ± 0.2 µM
Molecule: CC[C@H]1OC(=O)/C=C/[C@H](C)[C@@H](O[C@@H]2O[C@H](C)C[C@H](N(C)C)[C@H]2O)[C@@H](C)C[C@@H](C)C(=O)/C=C/C=C/[C@]1(O)CO[C@@H]1O[C@H](C)[C@@H](O)[C@@H](OC)[C@H]1OC [M-V, mycinamicin V]

Kd (MycCI): 28.1 ± 3.2 µM
Molecule: CC[C@H]1OC(=O)/C=C/[C@@H](C)[C@H](O[C@H]2O[C@@H](C)C[C@@H](N(C)C)[C@@H]2O)[C@H](C)C[C@@H](C)C(=O)/C=C\C=C\[C@H]1C [M-VIII, mycinamicin VIII]

Kd (MycG [3]): 0.7 ± 0.1 µM
Molecule: CC[C@H]1OC(=O)/C=C/[C@H](C)[C@@H](O[C@@H]2O[C@H](C)C[C@H](N(C)C)[C@H]2O)[C@@H](C)C[C@@H](C)C(=O)/C=C/C=C/[C@@H]1CO[C@@H]1O[C@H](C)[C@@H](O)[C@@H](OC)[C@H]1OC [M-IV, mycinamicin IV]

Kd (MycG [3]): 71.5 ± 8.4 µM
Molecule: CC[C@H]1OC(=O)/C=C/[C@H](C)[C@@H](O[C@@H]2O[C@H](C)C[C@H](N(C)C)[C@H]2O)[C@@H](C)C[C@@H](C)C(=O)/C=C/[C@H]2O[C@@H]2[C@]1(O)CO[C@@H]1O[C@H](C)[C@@H](O)[C@@H](OC)[C@H]1OC [M-II, mycinamicin II]

Kd [4]: 7 ± 0.1 µM
B1: N-terminal 6 x His-tagged ferredoxin MycCII (natural protein, Micromonospora griseorubida, UniProt Q83WF4 1-74, looked up)
chain: MRIVLDAERCVGAGQCEATAPELFTQGDDGLGLVRDRPVTPELLGPAREAVDRCPVRAIRIESSVRTGWARGAG
